pIC50: −log10 of the molar value.
Tested on: human C-Myc transcription in MV-4-11 cells
Experiment: Transcription of human C-Myc in human leukemic MV-4-11 cells (QuantiGene 2.0)
Format: cell-based
Conditions: Homo sapiens, MV4-11, 4 h, inhibition of C-Myc mRNA, 4 hours treatment
Description: b) Transcription of Human C-Myc in Human Leukemic MV-4-11 Cells:
The effect of compounds on transcription of human C-Myc gene is monitored in human B-myelomonocytic leukemia cell line MV-4-11 (from American Type Culture Collection (ATCC), Manassas, Va., USA) using QuantiGene 2.0 assay kit (Affymetrix, Santa Clara, Calif., USA).
Typically, 8,000 MV-4-11 cells are plated in sterile 96-well plates (Costar #3598 from Fisher Scientific Canada, Ottawa, Ontario, Canada) in Iscove's medium supplemented with 10% fetal bovine serum, glutamine (2 mM), and penicillin (100 I.U.) and streptomycin (100 μg/mL) (all from Wisent Inc., St. Bruno, Quebec, Canada). Compounds are dissolved in DMSO at 30 mM. A series of 1:3 dilutions are first made in DMSO, and further 1:100 dilutions are made in serum-containing cell culture media. The final concentration of DMSO is 0.1% in cell culture media. After cells are treated with various concentrations of test compound for 4 hours, cells are lysed using Quantigene 2.0 sample processing kit (#QS0100). C-Myc mRNA is detected using a QuantiGene 2.0 assay kit (#QS0009) with gene-specific probe to human C-Myc (#SA-50182) following the manufacturer's recommendations. Luminescene signals are read on Flexstation II microplate reader (Molecular Devices, Sunnyvale, Calif., USA).

| Compound | pIC50 |
| --- | --- |
| Cc1cc(-c2ccc3c(c2COC2CCC2)NC(=O)CC3)cn(C)c1=O [Compound 39, 8-(cyclobutoxymethyl)-7-(1,5-dimethyl-6-oxo-1,6-dihydropyridin-3-yl)-3,4-dihydroquinolin-2(1H)-one] | 5.01 |
| Cc1cc(-c2cc3c(cc2Cc2cccnc2)NC(=O)CC3)cn(C)c1=O [Compound 62, 6-(1,5-dimethyl-6-oxo-1,6-dihydropyridin-3-yl)-7-(pyridin-3-ylmethyl)-3,4-dihydroquinolin-2(1H)-one] | 6.07 |
| Cc1cc(-c2ccc3c(c2CCc2ccccc2)CCC(=O)N3)cn(C)c1=O [Compound 96, 6-(1,5-dimethyl-6-oxo-1,6-dihydropyridin-3-yl)-5-phenethyl-3,4-dihydroquinolin-2(1H)-one] | 6.11 |
| Cc1cc(-c2ccc3c(c2COC2CCCC2)CCC(=O)N3)cn(C)c1=O [Compound 68, 5-((cyclopentyloxy)methyl)-6-(1,5-dimethyl-6-oxo-1,6-dihydropyridin-3-yl)-3,4-dihydroquinolin-2(1H)-one] | 5.07 |
| Cc1cc(-c2cc3c(cc2Cc2ccccn2)NC(=O)CC3)cn(C)c1=O [Compound 61, 6-(1,5-dimethyl-6-oxo-1,6-dihydropyridin-3-yl)-7-(pyridin-2-ylmethyl)-3,4-dihydroquinolin-2(1H)-one] | 6.05 |
| Cc1cc(-c2ccc3c(c2Cc2ccccn2)CCC(=O)N3)cn(C)c1=O [Compound 57, 6-(1,5-dimethyl-6-oxo-1,6-dihydropyridin-3-yl)-5-(pyridin-2-ylmethyl)-3,4-dihydroquinolin-2(1H)-one] | 6.62 |
| Cc1cc(-c2ccc3c(c2/C=C/c2ccccc2)CCC(=O)N3)cn(C)c1=O [Compound 94, (E)-6-(1,5-dimethyl-6-oxo-1,6-dihydropyridin-3-yl)-5-styryl-3,4-dihydroquinolin-2(1H)-one] | 6.14 |
| Cc1cc(-c2ccc3c(c2Cc2ccncc2)CCC(=O)N3)cn(C)c1=O [Compound 59, 6-(1,5-dimethyl-6-oxo-1,6-dihydropyridin-3-yl)-5-(pyridin-4-ylmethyl)-3,4-dihydroquinolin-2(1H)-one] | 6.57 |
| Cc1cc(-c2cc3c(cc2Cc2cccc(F)c2)NC(=O)CC3)cn(C)c1=O [Compound 85, 6-(1,5-dimethyl-6-oxo-1,6-dihydropyridin-3-yl)-7-(3-fluorobenzyl)-3,4-dihydroquinolin-2(1H)-one] | 6.46 |
| Cc1cc(-c2cc3c(cc2Cc2ccccn2)CCC(=O)N3)cn(C)c1=O [Compound 32, 7-(1,5-dimethyl-6-oxo-1,6-dihydropyridin-3-yl)-6-(pyridin-2-ylmethyl)-3,4-dihydroquinolin-2(1H)-one] | 5.65 |
| Cc1cc(-c2cc3c(cc2/C=C/c2ccccc2)NC(=O)CC3)cn(C)c1=O [Compound 93, (E)-6-(1,5-dimethyl-6-oxo-1,6-dihydropyridin-3-yl)-7-styryl-3,4-dihydroquinolin-2(1H)-one] | 6.12 |
| Cc1cc(-c2cc3c(c(COc4ccccc4)c2)NC(=O)CC3)cn(C)c1=O [Compound 44, 6-(1,5-dimethyl-6-oxo-1,6-dihydropyridin-3-yl)-8-(phenoxymethyl)-3,4-dihydroquinolin-2(1H)-one] | 6.57 |
| Cc1cc(-c2cc3c(cc2Cc2ccc(F)cc2)NC(=O)CC3)cn(C)c1=O [Compound 90, 6-(1,5-dimethyl-6-oxo-1,6-dihydropyridin-3-yl)-7-(4-fluorobenzyl)-3,4-dihydroquinolin-2(1H)-one] | 6.62 |
| Cc1cc(-c2ccc3c(c2COC2CCC2)CCC(=O)N3)cn(C)c1=O [Compound 67, 5-(cyclobutoxymethyl)-6-(1,5-dimethyl-6-oxo-1,6-dihydropyridin-3-yl)-3,4-dihydroquinolin-2(1H)-one] | 5.69 |
| Cc1cc(-c2ccc3c(c2Cc2cccnc2)CCC(=O)N3)cn(C)c1=O [Compound 58, 6-(1,5-dimethyl-6-oxo-1,6-dihydropyridin-3-yl)-5-(pyridin-3-ylmethyl)-3,4-dihydroquinolin-2(1H)-one] | 6.60 |
| Cc1cc(-c2cc3c(c(COCC(F)(F)F)c2)NC(=O)CC3)cn(C)c1=O [Compound 46, 6-(1,5-dimethyl-6-oxo-1,6-dihydropyridin-3-yl)-8-((2,2,2-trifluoroethoxy)methyl)-3,4-dihydroquinolin-2(1H)-one] | 6.04 |
| Cc1cc(-c2cc3c(c(O[C@@H](C)c4ccccn4)c2)NC(=O)CC3)cn(C)c1=O [Compound 74a, (S)-6-(1,5-dimethyl-6-oxo-1,6-dihydropyridin-3-yl)-8-(1-(pyridin-2-yl)ethoxy)-3,4-dihydroquinolin-2(1H)-one] | 6.92 |
| Cc1cc(-c2ccc3c(c2Cc2ccc(F)cc2)CCC(=O)N3)cn(C)c1=O [Compound 91, 6-(1,5-dimethyl-6-oxo-1,6-dihydropyridin-3-yl)-5-(4-fluorobenzyl)-3,4-dihydroquinolin-2(1H)-one] | 7.00 |

More lines, now with the values ahead:

| pIC50 | Compound |
| --- | --- |
| 7.05 | CC(=O)N(Cc1cc(-c2cc(C)c(=O)n(C)c2)cc2c1NC(=O)CC2)C1CCCC1 [Compound 98, N-cyclopentyl-N-((6-(1,5-dimethyl-6-oxo-1,6-dihydropyridin-3-yl)-2-oxo-1,2,3,4-tetrahydroquinolin-8-yl)methyl)acetamide] |
| 6.08 | Cc1cc(-c2cc3c(c(CNC4CCCCC4)c2)NC(=O)CC3)cn(C)c1=O [Compound 24, 8-[(cyclohexylamino)methyl]-6-(1,5-dimethyl-6-oxo-3-pyridyl)-3,4-dihydro-1H-quinolin-2-one] |
| 5.55 | Cc1cc(-c2cc3c(cc2COC2CCCC2)CCC(=O)N3)cn(C)c1=O [Compound 34, 6-((cyclopentyloxy)methyl)-7-(1,5-dimethyl-6-oxo-1,6-dihydropyridin-3-yl)-3,4-dihydroquinolin-2(1H)-one] |
| 6.26 | Cc1cc(-c2cc3c(c(OCC4CCCOC4)c2)NC(=O)CC3)cn(C)c1=O (stereo not shown) [Compound 54a, 6-(1,5-dimethyl-6-oxo-1,6-dihydropyridin-3-yl)-8-((tetrahydro-2H-pyran-3-yl)methoxy)-3,4-dihydroquinolin-2(1H)-one] |
| 6.24 | Cc1cc(-c2cc3c(c(OCC4CCCCO4)c2)NC(=O)CC3)cn(C)c1=O (stereo not shown) [Compound 55a, 6-(1,5-dimethyl-6-oxo-1,6-dihydropyridin-3-yl)-8-((tetrahydro-2H-pyran-2-yl)methoxy)-3,4-dihydroquinolin-2(1H)-one] |
| 6.27 | Cc1cc(-c2cc3c(c(OCC4CCCCC4)c2)NC(=O)CC3)cn(C)c1=O [Compound 71] |
| 6.27 | Cc1cc(-c2ccc3c(c2COC2CCCC2)NC(=O)CC3)cn(C)c1=O [Compound 38, 8-((cyclopentyloxy)methyl)-7-(1,5-dimethyl-6-oxo-1,6-dihydropyridin-3-yl)-3,4-dihydroquinolin-2(1H)-one] |
| 6.10 | Cc1cc(-c2cc3c(c(CN(C)C4CCCC4)c2)NC(=O)CC3)cn(C)c1=O [Compound 97, 8-((cyclopentyl(methyl)amino)methyl)-6-(1,5-dimethyl-6-oxo-1,6-dihydropyridin-3-yl)-3,4-dihydroquinolin-2(1H)-one] |
| 5.58 | Cc1cc(-c2cc3c(c(Oc4ccccc4)c2)NC(=O)CC3)cn(C)c1=O [Compound 15, 6-(1,5-dimethyl-6-oxo-1,6-dihydropyridin-3-yl)-8-phenoxy-3,4-dihydroquinolin-2(1H)-one] |
| 6.10 | Cc1cc(-c2cc3c(c(OCC4CCC4)c2)NC(=O)CC3)cn(C)c1=O [Compound 20, 8-(cyclobutylmethoxy)-6-(1,5-dimethyl-6-oxo-1,6-dihydropyridin-3-yl)-3,4-dihydroquinolin-2(1H)-one] |
| 6.82 | Cc1cc(-c2cc3c(c(COC4CCCCC4)c2)NC(=O)CC3)cn(C)c1=O [Compound 27, 8-(cyclohexoxymethyl)-6-(1,5-dimethyl-6-oxo-3-pyridyl)-3,4-dihydro-1H-quinolin-2-one] |
| 6.28 | Cc1cc(-c2cc3c(c(OC4CCCCC4)c2)NC(=O)CC3)cn(C)c1=O [Compound 16, 8-(cyclohexyloxy)-6-(1,5-dimethyl-6-oxo-1,6-dihydropyridin-3-yl)-3,4-dihydroquinolin-2(1H)-one] |

Same assay, conditions: inhibition of C-Myc mRNA, 4 hours treatment

| pIC50 | Compound |
| --- | --- |
| 7.05 | Cc1cc(-c2cc3c(c(OC(C)c4cccnc4)c2)NC(=O)CC3)cn(C)c1=O (single isomer, unassigned) [Compound 92a, 6-(1,5-dimethyl-6-oxo-1,6-dihydropyridin-3-yl)-8-(1-(pyridin-3-yl)ethoxy)-3,4-dihydroquinolin-2(1H)-one] |
| 6.10 | Cc1cc(-c2cc3c(c(OCC4CCCCO4)c2)NC(=O)CC3)cn(C)c1=O (stereo not shown) [Compound 55b, 6-(1,5-dimethyl-6-oxo-1,6-dihydropyridin-3-yl)-8-((tetrahydro-2H-pyran-2-yl)methoxy)-3,4-dihydroquinolin-2(1H)-one] |
| 6.29 | Cc1cc(-c2cc3c(c(OC(C)c4cccnc4)c2)NC(=O)CC3)cn(C)c1=O (single isomer, unassigned) [Compound 92b, 6-(1,5-dimethyl-6-oxo-1,6-dihydropyridin-3-yl)-8-(1-(pyridin-3-yl)ethoxy)-3,4-dihydroquinolin-2(1H)-one] |
| 6.62 | Cc1cc(-c2cc3c(c(NC(C)c4ccccn4)c2)NC(=O)CC3)cn(C)c1=O (stereo not shown) [Compound 23, 6-(1,5-dimethyl-6-oxo-3-pyridyl)-8-[1-(2-pyridyl)ethylamino]-3,4-dihydro-1H-quinolin-2-one] |

Source: patent publication US10501438B2, “Aryl-substituted dihydroquinolinones, their preparation and their use as pharmaceuticals” (NEOMED Institute, priority 2015, dated 2019)
